According to publication PMC12038849, “Identification and Characterization of a Leoligin-Inspired Synthetic Lignan as a TGR5 Agonist” (Journal of Natural Products, 2025):

Target: T1, G-protein coupled bile acid receptor 1 (GPBAR1 or TGR5) (Homo sapiens, UniProt Q8TDU6)
T1 construct: human TGR5-ORF (NM_170699), stably expressed in HEK EPAC cells
T1 sequence (Q8TDU6 1-330): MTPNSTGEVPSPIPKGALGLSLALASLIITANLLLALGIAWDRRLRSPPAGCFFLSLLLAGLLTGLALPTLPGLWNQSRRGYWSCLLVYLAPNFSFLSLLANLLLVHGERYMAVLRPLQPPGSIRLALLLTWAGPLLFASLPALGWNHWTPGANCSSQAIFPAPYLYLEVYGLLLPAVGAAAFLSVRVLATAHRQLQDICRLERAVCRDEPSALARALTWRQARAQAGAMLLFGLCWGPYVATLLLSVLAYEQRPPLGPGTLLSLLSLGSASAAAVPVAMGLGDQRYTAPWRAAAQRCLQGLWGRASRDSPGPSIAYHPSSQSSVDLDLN
Assay: EPAC FRET cAMP accumulation assay in TGR5-expressing HEK cells; inactive in non-TGR5 cells
Assay type: cell-based

EC50: 23 µM
SMILES: C/C=C(/C)C(=O)OCC[C@H]1[C@@H](Cc2ccc(OC)c(OC)c2)CO[C@@H]1c1ccc(OC)c(OC)c1 [compound 1, LT-188A]
